This is an account of results in patent publication US20030204875A1, “Novel agrobacterium-mediated plant transformation method” (priority 1999, published 2003).

The first test relates to immature embryos of genotype (H99×Pa 91)A188. Kind of test: Transformation efficiency of corn with different growth inhibiting agents during co-culture. It counts as cell-based. To be noted: 50 mg/L in co-culture medium, three days; OD 4.0. How it is done: b) Biological assay (leaf bleach assay). Leaf samples (a leaf punch) from approximately 2-week-old seedlings were placed in wells of 24-well cell culture clusters (Costar Corporation, Cambridge, Mass.). Each well was filled with 0.5 ml aqueous solution composed of 300 mg/L paromomycin (Sigma) and 100 mg/L Benlate (a fungicide made by Du Pont), 100 mg/IL Benlate alone was used as a control. Three leaf samples from the same leaf of each plant were placed in two wells containing paromomycin plus Benlate and one well containing Benlate alone, respectively. Leaf samples from non-transformed plants were used as negative controls. The samples were vacuum-infiltrated in a dessicator using an in-house vacuum system for 5 min and then the clusters were sealed tightly with parafilm before being placed under light (140 μMol m-2s-1). The results were determined after 60 hours.
Immature embryos of genotype (H99×Pa 91)A188 were isolated as described. […] The Agrobacterium strain was pre-induced as described. The inoculation was performed using a concentration of A660 OD 4.0 for 15 minutes as described. Post inoculation, Agrobacterium suspension was removed and embryos were placed on different semi-solid co-culture media supplemented with various bacteriocidal compounds. All the tissues were incubated for three days in the dark. The transformation protocol followed was as described previously (corn IE transformation) except that the 1st selection with 50 mg/L Paromomycin was replaced with 25 mg/L Paromomycin for 2 weeks and 50 mg/L Paromomycin for 2 additional weeks. Transformation efficiency was calculated based on the number of embryos producing nptII positive plants as determined by a leaf bleach assay as described earlier. Three weeks after the transformation, the quality and growth characteristics of IE-derived callus co-cultured in the presence of different growth inhibiting agents.
`CC1(C)S[C@@H]2[C@H](NC(=O)C(C(=O)O)c3ccccc3)C(=O)N2[C@H]1C(=O)O` (some centres unmarked) [Carbenicillin, reference compound]: the “% Transformation” value is recorded as 14.3%.

The test system of a further test is Agrobacterium (strain ABI).
Assay: not given
The test is classed as cell-based. Also noted: key: “No Growth” indicates there was not an increase in cell density indicating bacteriocidal or bacteriostatic property of the chemical; “Slow Growth” indicates that a slight increase in cell density was noticed and a higher level may be lethal; “Growth” indicates no effect on bacterial growth at the concentration used relative to growth in control medium. To be noted: control, final concentration 50 mg/L; twenty-four hours. How it is done:
Each of the chemicals listed in Table 26 was resuspended in MS-BMS media and added (final concentration 50 μM) to a 50 ml overnight culture of Agrobacterium (strain ABI). Twenty-four hours after inoculation the effect of the chemicals on the growth of Agrobacterium was recorded. A known bacteriocidal compound, Carbenicillin at a final concentration of 50 mg/L and AgNO3 (20 μM) were used as controls.
With `CC1(C)S[C@@H]2[C@H](NC(=O)C(C(=O)O)c3ccccc3)C(=O)N2[C@H]1C(=O)O` (some centres unmarked) [Carbenicillin, reference compound], the “Effect (on growth of Agrobacterium)” value is “No Growth”.

Still in this test, the particulars now being: final concentration 50 μM in MS-BMS media; twenty-four hours.
Take `[Cl][Al]([Cl])[Cl]` [Aluminum Chloride]: the “Effect (on growth of Agrobacterium)” value is on record as “Growth”.
On the same count and under the same terms, as for `[Cl][Cd][Cl]` [Cadmium Chloride], the entry is “Slow Growth”.
On the same count and under the same terms, as for `[Cl][Cr][Cl]` [Chromium (II) Chloride], the entry is “Growth”; as for `[Cl][Ni][Cl]` [Nickel Chloride], “Growth”.
The same measure, in the same setting: as for `[Na+].[Na+].[O]=[Mo](=[O])([O-])[O-]` [Sodium Molybdate], the entry is “Growth”.
For the compound `[Na+].[Na+].[O]=[W](=[O])([O-])[O-]` [Sodium Tungstate], the “Effect (on growth of Agrobacterium)” value was “Growth”.
Take `[Cl-].[Cl-].[Zn+2]` [Zinc Chloride]: the “Effect (on growth of Agrobacterium)” value was “Growth”.
The same measure, in the same setting: then Lead Nitrate, with “Growth”.
Same read-out and setting: as for Manganese Chloride, the entry is “Slow Growth”.
